Results as given in patent US20230312529A1, “PYRIMIDINE SMALL-MOLECULE COMPOUND AND APPLICATION THEREOF” (WENZHOU MEDICAL UNIVERSITY, priority 2021, published 2023).

Key:
Experiment in all cases: Caliper Mobility Shift kinase inhibition test
Type in all cases: biochemical
[1] = target: FLT3 (Homo sapiens (Human), UniProt P36888); settings: 100 nM; for inhibition at 0.1 µM: read-out: inhibitory rate on FLT3
Experimental: (§1) The method adopted in the test was Caliper Mobility Shift Assay, which was a detection platform based on the mobility detection technology of microfluidic chip technology. Test steps: 1.25× kinase reaction buffer (62.5 mmol/L HEPES, pH 7.5; 0.001875% Brij-35; 12.5 mmol/L MgCl2; 2.5 mM DTT) and kinase reaction stop solution (100 mmol/L HEPES, pH 7.5; 0.015% Brij-35; 0.2% Coating Reagent #3) were configured. […] Collected data was tested on Caliper to yield that inhibition ratio to kinase activity=(max−conversion)/(max−min)×100. “max” was DMSO control without adding compound, and “min” was low control. When IC50 was determined, each sample was provided with 10 dilutions, each with 2 multiple holes, and repeated for 3 times.

[2] = target: PDGFRα (Homo sapiens (Human), UniProt P16234)
PDGFRα, sequence (P16234 24-1089): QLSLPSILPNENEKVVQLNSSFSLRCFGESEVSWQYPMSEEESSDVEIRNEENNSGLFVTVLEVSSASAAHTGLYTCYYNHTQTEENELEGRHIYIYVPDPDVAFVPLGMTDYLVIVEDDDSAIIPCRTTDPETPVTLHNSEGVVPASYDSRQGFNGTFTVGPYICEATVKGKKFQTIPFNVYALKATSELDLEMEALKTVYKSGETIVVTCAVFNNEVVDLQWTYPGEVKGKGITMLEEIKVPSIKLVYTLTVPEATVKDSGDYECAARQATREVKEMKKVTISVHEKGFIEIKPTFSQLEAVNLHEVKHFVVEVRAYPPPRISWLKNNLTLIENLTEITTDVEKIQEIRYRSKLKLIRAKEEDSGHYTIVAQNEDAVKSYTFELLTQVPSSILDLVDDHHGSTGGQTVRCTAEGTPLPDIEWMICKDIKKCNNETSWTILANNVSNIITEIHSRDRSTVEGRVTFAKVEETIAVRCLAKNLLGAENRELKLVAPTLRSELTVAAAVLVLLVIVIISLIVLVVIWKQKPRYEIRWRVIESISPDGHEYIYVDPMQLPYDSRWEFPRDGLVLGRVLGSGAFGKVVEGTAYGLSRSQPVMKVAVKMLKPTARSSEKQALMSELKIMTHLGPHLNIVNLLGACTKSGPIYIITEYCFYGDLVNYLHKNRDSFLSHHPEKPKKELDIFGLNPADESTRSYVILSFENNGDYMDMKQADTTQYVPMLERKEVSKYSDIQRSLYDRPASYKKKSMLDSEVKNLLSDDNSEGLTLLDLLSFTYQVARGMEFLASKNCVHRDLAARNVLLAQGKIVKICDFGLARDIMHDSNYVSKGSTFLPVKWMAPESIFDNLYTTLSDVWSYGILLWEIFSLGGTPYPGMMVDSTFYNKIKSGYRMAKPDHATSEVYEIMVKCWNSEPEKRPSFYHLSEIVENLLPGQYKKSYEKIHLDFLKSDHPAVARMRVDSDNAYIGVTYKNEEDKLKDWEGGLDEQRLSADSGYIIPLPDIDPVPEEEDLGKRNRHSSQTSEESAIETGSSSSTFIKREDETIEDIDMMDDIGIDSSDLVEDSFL
Experimental: (§2) The method adopted in the test was Caliper Mobility Shift Assay, which was a detection platform based on the mobility detection technology of microfluidic chip technology. […] Collected data was tested on Caliper to yield that inhibition ratio to kinase activity=(max−conversion)/(max−min)×100. “max” was DMSO control without adding compound, and “min” was low control. When IC50 was determined, each sample was provided with 10 dilutions, each with 2 multiple holes, and repeated for 3 times.

[3] = target: ABL1 (Homo sapiens (Human), UniProt P00519); settings: 100 nM; for inhibition at 0.1 µM: read-out: inhibitory rate on ABL1
ABL1, sequence (P00519 whole entry): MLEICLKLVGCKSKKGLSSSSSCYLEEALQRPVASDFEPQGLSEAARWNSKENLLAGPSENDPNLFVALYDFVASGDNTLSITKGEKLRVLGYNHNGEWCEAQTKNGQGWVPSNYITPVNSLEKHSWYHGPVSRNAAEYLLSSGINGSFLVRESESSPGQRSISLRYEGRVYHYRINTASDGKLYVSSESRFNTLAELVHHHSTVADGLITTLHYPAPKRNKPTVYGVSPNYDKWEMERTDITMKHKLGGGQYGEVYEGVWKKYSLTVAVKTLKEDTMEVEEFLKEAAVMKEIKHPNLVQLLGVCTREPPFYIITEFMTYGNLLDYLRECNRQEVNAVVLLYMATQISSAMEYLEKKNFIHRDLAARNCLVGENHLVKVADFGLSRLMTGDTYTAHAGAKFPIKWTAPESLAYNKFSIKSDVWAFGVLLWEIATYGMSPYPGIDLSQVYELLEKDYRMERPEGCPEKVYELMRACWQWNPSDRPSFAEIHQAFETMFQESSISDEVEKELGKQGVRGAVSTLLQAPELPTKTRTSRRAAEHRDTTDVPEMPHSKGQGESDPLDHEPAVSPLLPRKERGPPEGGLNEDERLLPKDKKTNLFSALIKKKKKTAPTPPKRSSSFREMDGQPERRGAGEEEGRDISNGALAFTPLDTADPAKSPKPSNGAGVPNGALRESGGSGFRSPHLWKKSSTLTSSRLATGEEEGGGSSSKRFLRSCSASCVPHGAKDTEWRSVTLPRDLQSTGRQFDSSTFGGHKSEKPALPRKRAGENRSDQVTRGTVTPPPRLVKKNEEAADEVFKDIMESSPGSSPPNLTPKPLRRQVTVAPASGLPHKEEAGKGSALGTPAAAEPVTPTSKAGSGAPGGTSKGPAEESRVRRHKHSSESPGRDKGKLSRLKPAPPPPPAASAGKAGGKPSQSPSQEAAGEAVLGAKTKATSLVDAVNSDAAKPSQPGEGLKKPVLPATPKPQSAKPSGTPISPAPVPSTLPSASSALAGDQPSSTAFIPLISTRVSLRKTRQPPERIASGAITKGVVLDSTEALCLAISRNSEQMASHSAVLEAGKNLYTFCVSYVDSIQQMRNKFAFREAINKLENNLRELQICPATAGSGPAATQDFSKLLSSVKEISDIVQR
Experimental: as §2

[4] = target: PDGFRβ (Homo sapiens (Human), UniProt P09619); settings: for inhibitory rate on PDGFR-β / inhibition at 0.1 µM: 100 nM; for inhibition at 0.1 µM: read-out: inhibitory rate on PDGFR-β; for IC50: read-out: IC50 PDGFR-β
PDGFRβ, sequence (P09619 33-1106): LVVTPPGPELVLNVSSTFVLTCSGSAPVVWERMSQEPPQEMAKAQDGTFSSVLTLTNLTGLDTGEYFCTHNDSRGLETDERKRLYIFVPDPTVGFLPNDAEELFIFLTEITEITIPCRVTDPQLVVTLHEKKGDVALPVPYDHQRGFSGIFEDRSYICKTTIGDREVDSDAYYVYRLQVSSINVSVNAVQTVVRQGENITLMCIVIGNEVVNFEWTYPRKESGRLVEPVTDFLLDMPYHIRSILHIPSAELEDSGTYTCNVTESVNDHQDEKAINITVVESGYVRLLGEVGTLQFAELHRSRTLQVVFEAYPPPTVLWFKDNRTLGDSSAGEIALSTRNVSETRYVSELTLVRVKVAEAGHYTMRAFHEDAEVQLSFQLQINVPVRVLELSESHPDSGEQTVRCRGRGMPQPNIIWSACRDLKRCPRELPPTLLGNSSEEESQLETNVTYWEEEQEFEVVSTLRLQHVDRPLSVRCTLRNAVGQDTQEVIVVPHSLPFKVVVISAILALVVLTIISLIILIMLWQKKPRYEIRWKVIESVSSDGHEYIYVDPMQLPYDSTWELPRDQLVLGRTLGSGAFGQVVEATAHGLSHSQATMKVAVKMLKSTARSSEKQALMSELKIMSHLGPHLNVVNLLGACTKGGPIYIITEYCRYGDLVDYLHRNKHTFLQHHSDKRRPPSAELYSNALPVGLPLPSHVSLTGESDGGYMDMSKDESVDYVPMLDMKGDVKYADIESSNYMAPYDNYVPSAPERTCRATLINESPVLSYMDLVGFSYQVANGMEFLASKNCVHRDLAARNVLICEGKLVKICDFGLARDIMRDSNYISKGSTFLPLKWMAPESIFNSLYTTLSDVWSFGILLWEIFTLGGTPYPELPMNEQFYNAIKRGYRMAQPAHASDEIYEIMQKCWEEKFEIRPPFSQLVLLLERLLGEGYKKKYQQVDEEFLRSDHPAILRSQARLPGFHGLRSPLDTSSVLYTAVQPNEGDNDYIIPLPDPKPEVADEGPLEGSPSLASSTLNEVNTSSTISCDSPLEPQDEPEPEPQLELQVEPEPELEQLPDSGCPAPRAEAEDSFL
Experimental: as §1
According to the above-mentioned method for measuring kinase inhibitory activity, the inhibitory activity of the active compounds on other multiple kinases was measured to characterize the kinase selectivity of active inhibitors.

FLT3, sequence (P36888 27-993): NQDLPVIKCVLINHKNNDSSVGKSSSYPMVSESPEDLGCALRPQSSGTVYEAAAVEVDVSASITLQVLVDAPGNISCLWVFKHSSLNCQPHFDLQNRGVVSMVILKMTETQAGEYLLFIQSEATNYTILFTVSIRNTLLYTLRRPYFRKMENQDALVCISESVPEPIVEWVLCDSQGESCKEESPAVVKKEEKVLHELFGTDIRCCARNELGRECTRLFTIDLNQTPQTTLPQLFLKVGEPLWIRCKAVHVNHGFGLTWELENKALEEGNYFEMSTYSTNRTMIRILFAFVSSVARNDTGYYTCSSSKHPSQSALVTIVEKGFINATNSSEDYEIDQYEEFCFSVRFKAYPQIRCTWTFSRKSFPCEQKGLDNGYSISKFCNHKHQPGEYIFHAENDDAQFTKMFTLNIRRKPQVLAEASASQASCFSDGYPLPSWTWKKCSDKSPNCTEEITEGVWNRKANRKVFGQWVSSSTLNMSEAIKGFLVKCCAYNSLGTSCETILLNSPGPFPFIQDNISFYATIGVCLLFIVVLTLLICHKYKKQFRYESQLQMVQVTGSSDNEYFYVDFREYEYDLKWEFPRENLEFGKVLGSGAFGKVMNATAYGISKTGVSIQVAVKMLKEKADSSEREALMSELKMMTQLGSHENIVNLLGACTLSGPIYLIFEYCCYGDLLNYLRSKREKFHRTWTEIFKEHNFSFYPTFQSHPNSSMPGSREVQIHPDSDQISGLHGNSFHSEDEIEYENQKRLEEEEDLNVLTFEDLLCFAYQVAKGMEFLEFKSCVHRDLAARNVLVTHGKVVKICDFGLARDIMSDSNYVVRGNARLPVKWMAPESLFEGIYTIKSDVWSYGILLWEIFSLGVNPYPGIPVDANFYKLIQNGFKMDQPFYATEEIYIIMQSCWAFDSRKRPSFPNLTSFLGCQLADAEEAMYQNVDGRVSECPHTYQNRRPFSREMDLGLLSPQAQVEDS

Question: How did the “inhibitory rate on FLT3” value [1] turn out when `Cc1cc2c(Nc3ccc4cn[nH]c4c3)nc(Nc3ccc(N4CCN(C)CC4)cc3)nc2s1` [Compound 3i] was run?
Answer: 42.6%

Question: What about the “inhibitory rate on PDGFR-α” value ([2]; 100 nM) of the same compound?
Answer: 6.6%

Question: What about the “inhibitory rate on ABL1” value [3] of the same compound?
Answer: 23.6%

Question: What about the “inhibitory rate on PDGFR-β” value [4] of the same compound?
Answer: 30.7%

Question: How did the “inhibitory rate on FLT3” value [1] turn out when `Cc1cnc(Nc2ccc(N3CCN(C)CC3)cc2)nc1Nc1ccc2[nH]ccc2c1` [Compound 5a] was run?
Answer: 60.3%

Question: And the “inhibitory rate on PDGFR-α” value ([2]; 100 nM)?
Answer: 57.3%

Question: What about the “inhibitory rate on ABL1” value [3] of the same compound?
Answer: 58.9%

Question: What about the “inhibitory rate on PDGFR-β” value [4] of the same compound?
Answer: 78.6%

Question: How did the inhibition at 0.1 µM [1] turn out when `Cc1cnc(Nc2ccc(N3CCN(C)CC3)cc2)nc1Nc1ccc2c(c1)CCCC2` [Compound 5g, 5-methyl-N^2-(4-(4-methylpiperazine-1-yl)phenyl)-N^4-(5,6,7,8-tetrahydronaphthalene-2-yl)-pyrimidine-2,4-diamine] was run?
Answer: 85.7%

Question: What about the inhibition at 0.1 µM [3] of the same compound?
Answer: 89.2%

Question: What about the inhibition at 0.1 µM [4] of the same compound?
Answer: 90.4%

Question: With `Cc1cnc(Nc2ccc(N3CCN(C)CC3)cc2)nc1Nc1ccc2c(c1)CCC2` [Compound 5h, N^4-(2,3-dihydro-1H-indene-5-yl)-5-methyl-N^2-(4-(4-methylpiperazine-1-yl)phenyl)pyrimidine-2,4-diamine] as the compound, how does the inhibition at 0.1 µM [1] read?
Answer: 87.1%

Question: And the inhibition at 0.1 µM [3]?
Answer: 80.2%

Question: And the inhibition at 0.1 µM [4]?
Answer: 88.9%

Question: `Cc1cnc(Nc2ccc(N3CCN(C)CC3)cc2)nc1Nc1ccc2c(C)n[nH]c2c1` [Compound 5i, 5-methyl-N^4-(3-methyl-1H-indazol-6-yl)-N^2-(4-(4-methylpiperazine-1-yl)phenyl)pyrimidine-2,4-diamine] was tested. Which inhibition at 0.1 µM [1] did it give?
Answer: 93.4%

Question: And the inhibition at 0.1 µM [3]?
Answer: 85.2%

Question: What about the inhibition at 0.1 µM [4] of the same compound?
Answer: 98%

Question: And the IC50 [4]?
Answer: 7.9 nM

Question: Which results are given for `Cc1cnc(Nc2ccc(N3CCN(C)CC3)cc2)nc1Nc1ccc2cn(CCNC(=O)OC(C)(C)C)nc2c1` [Compound 5j, Tert-butyl (2-(6-((5-methyl-2-((4-(4-methylpiperazine-1-yl)phenyl)amino)-pyrimidine-4-yl)amino)-2H-indazol-2-yl)ethyl) carbamate]?
Answer: inhibitory rate on FLT3 [1]: 74.3%; inhibitory rate on ABL1 [3]: 71.6%; inhibitory rate on PDGFR-β [4]: 71.1%

Question: Which results are given for `Cc1cnc(Nc2ccc(N3CCN(C)CC3)cc2)nc1Nc1ccc2cnn(C)c2c1` [Compound 5k, 5-methyl-N^4-(1-methyl-1H-indazol-6-yl)-N^2-(4-(4-methylpiperazine-1-yl)phenyl)pyrimidine-2,4-diamine]?
Answer: inhibition at 0.1 µM [1]: 88.7%; inhibition at 0.1 µM ([2]; 100 nM, read-out: inhibitory rate on PDGFR-α): 91.1%; IC50 ([2]; read-out: IC50 PDGFR-α): 19 nM; inhibition at 0.1 µM [3]: 90.4%; inhibition at 0.1 µM [4]: 96.4%; IC50 [4]: 7.3 nM

Question: With `Cc1cnc(Nc2ccc(N3CCOCC3)cc2)nc1Nc1ccc2cn[nH]c2c1` [Compound 6a, N^4-(1H-indazol-6-yl)-5-methyl-N^2-(4-morphinophenyl) pyrimidine-2,4-diamine] as the compound, how does the “inhibitory rate on FLT3” value [1] read?
Answer: 87.2%

Question: What about the “inhibitory rate on ABL1” value [3] of the same compound?
Answer: 98.2%

Question: What about the “inhibitory rate on PDGFR-β” value [4] of the same compound?
Answer: 93.8%

Question: And the IC50 [4]?
Answer: 4.2 nM

Question: Which results are given for `Cc1cnc(Nc2ccc(N3CCNCC3)cc2)nc1Nc1ccc2cn[nH]c2c1` [Compound 6b, N^4-(1H-indazol-6-yl)-5-methyl-N^2-(4-(piperazine-1-yl)phenyl) py rimidine-2,4-diamine]?
Answer: inhibition at 0.1 µM [1]: 87.3%; inhibition at 0.1 µM [3]: 91.2%; inhibition at 0.1 µM [4]: 68.7%; IC50 [4]: 68.7 nM

Question: `COc1cc(N2CCC(N3CCN(C)CC3)CC2)ccc1Nc1ncc(C)c(Nc2ccc3cn[nH]c3c2)n1` [Compound 6k, N^4-(1H-indazol-6-yl)-N^2-(2-methoxy-4-(4-(4-methylpiperazine-1-yl)piperidine-1-yl)phenyl)-5-methylpyrimidine-2,4-diamine] was tested. Which inhibition at 0.1 µM [1] did it give?
Answer: 58.4%

Question: And the inhibition at 0.1 µM [3]?
Answer: 47.5%

Question: What about the inhibition at 0.1 µM [4] of the same compound?
Answer: 76.4%

Question: With `Cc1cnc(Nc2ccc(C(=O)N3CCN(C)CC3)cc2)nc1Nc1ccc2cn[nH]c2c1` [Compound 6m, (4-((4-((1H-indazol-6-yl)amino)-5-methylpyrimidine-2-yl)amino)phenyl) (4-methylpiperazine-1-yl)methanone] as the compound, how does the inhibition at 0.1 µM [1] read?
Answer: 85.6%

Question: And the inhibition at 0.1 µM [3]?
Answer: 81%

Question: What about the inhibition at 0.1 µM [4] of the same compound?
Answer: 78.4%
